Measured values as given in patent publication US12358949B2, “Defensin fragments for use in therapy or prophylaxis” (priority 2019, dated 2025).
Like-named read-outs stand apart in the source and are kept apart here. Where a SMILES comes first, the peptide text is derived from it. Bridges are numbered along the chain shown (N, C = ends).

Tests used:
E. coli MC1000 = assay: Transmission electron microscopy of peptide treated bacteria; format: cell-based; conditions: 200 μg/ml, 2 hours
Description: Transmission electron microcscopy experiments were performed as previously described^11. 6×10^8 cfu E. coli MC1000 was incubated with 200 μg/ml of each peptide for 2 hours. Bacteria were fixed in Karnovsky's fixative, embedded in agarose, coagulated, cut in small blocks and fixed again in Karnovsky's solution. After post-fixation and embedding in glycid ether blocks were cut using an ultra-microtome. Sections (30 nm) were mounted on copper grids and analyzed using a Zeiss LIBRA 120 transmissions electron microscope.

A. baumannii 4-MRGN = format: cell-based
Description: (§1) The tested bacteria were incubated overnight in 1×TSB broth, centrifuged and washed with 10 mM sodium phosphate buffer containing 1% (w/v) TSB broth. 5×10^5 cfu/ml bacteria were mixed with different peptide concentrations in 10 mM sodium phosphate buffer with 1% (w/v) TSB (final volume 100 μl) and incubated for 2 hours at 37° C. Afterwards we added 100 μl 2×TSB broth and we measured the optical density at 600 nm (Spark 10M, Tecan, Austria). Bacterial growth was monitored for 12 hours, growing at 37° C. with shaking during the measurements each 30 minutes, except for Akkermansia muciniphila which were incubated at 37° C. in an anaerobic jar and growth was measured after 72 hours.

P. aeruginosa ATCC 27853 = format: cell-based
Description: as §1

pathogenic bacteria = assay: Radial diffusion assay, HD-5 fragments; format: cell-based; conditions: pathogenic Gram-positive and Gram-negative bacteria (FIG. 4)
Description: A heat map system with high activity (inhibition zone in the RDA>5 mm), low activity (2.5 to 5 mm) and no activity (2.5 mm) was used.
(§2) Antimicrobial activity of all peptides was tested with a modified radial diffusion assay from Lehrer et al^12 Shortly described, log-phase bacteria grew (anaerobic bacteria with AnaeroGen, Oxoid in anaerobic jars) in liquid tryptic soy broth (TSB) (Becton Dickinson). After several wash steps in 10 mM sodium phosphate buffer pH 7.4, 4×10^6 cfu/ml was used per assay. To measure the antibacterial effect of the identified peptide fragments, the bacteria were incubated in 10 mM sodium phosphate (pH 7.4) containing 0.3 mg/ml TSB powder and 1% (w/v) low EEO-agarose (Applichem). Peptide fragments were then pipetted into punched wells and allowed to diffuse for 3 hours at 37° C. After that a nutrient rich gel with 6% TSB (w/v) and 1% agarose in 10 mM sodium phosphate buffer was poured on top of the first gel. After 24 hours the inhibition zones were measured. […] All experiments were carried out at least three times.

commensal bacteria = assay: Radial diffusion assay, HD-5 fragments; format: cell-based; conditions: 4 μg fragment, 2 μg full-length peptide; commensal bacteria (FIG. 3)
Description: In the RDA 2 μg of the full length and 4 μg of each fragment were used. An inhibition zone greater than 5 mm was determined as high activity, between 2.5 and 5 mm as low activity and 2.5 mm were the diameter of the punched well and therefore no activity.
as §2

[1] = Incubation of reduced peptide with human duodenal fluid, LC/MS; format: in vitro ADME; conditions: after reduction with 2 mM TCEP; duodenal fluid 30 minutes at 37° C.
Description: 2.5 μg of HD-5 or HD-6 were incubated in 50 mM NH4HCO3 buffer (pH 8.0) (Fluka) with 2 mM tris(2-carboxyethyl) phosphine for 15 minutes at 37° C. Afterwards human duodenal fluid was added and incubated for additional 30 minutes at 37° C. At last, formic acid and acetonitrile was added in a final concentration of 0.5% and 10%, respectively, and analyzed the samples by mass spectrometry. Mass spectrometry was performed as a LC/MS system using an Agilent 1200 series HPLC with an Agilent Advanced Bio Peptide Map (2.1×150 mm, 2.7 μm) column with a flow of 0.4 ml/min at 55° C. column temperature and a 6540 UHD Q-TOF LC/MS system (Agilent) for mass analysis. The samples were separated by a gradient of acetonitrile in 0.1% formic acid. The gradient started at 2% acetonitrile for 4 minutes and then increased during 35 minutes to 45%. Mass spectrometric analyses were performed in single MS mode from 100 to 3400 m/z with positive ion polarity and were analyzed by Agilent MassHunter Quantitative Analysis B 06.00 software.

CaCo2/TC7 cells = test system: CaCo2/TC7 cells
Description: CaCo2/TC7 (X, X) and HT29 MTX […] […] Experiments were carried out in duplicates.

E. coli JM83 = format: cell-based
Description: as §1

P. aeruginosa XPAT2 = format: cell-based
Description: as §1

Y. enterocolitica = format: cell-based
Description: as §1

A. baumannii DSM 30007 = format: cell-based
Description: as §1

K. pneumoniae 3-MRGN = format: cell-based
Description: as §1

P. aeruginosa 4-MRGN = format: cell-based
Description: as §1

E. faecium 475747 = format: cell-based
Description: as §1

S. aureus ATCC 25923 = format: cell-based
Description: as §1

E. faecium DSM 20477 = format: cell-based
Description: as §1

S. aureus USA300 = format: cell-based
Description: as §1

P. aeruginosa PAO1 = format: cell-based
Description: as §1

K. pneumoniae DSM 30104 = format: cell-based
Description: as §1

P. aeruginosa XPAT1 = format: cell-based
Description: as §1

human erythrocytes = assay: Hemolytic assay; format: cell-based; conditions: compared to Melittin
Description: Hemolytic activity was measured after an existing protocol^13. We obtained blood from two voluntary donors (sample collection had been previously approved by the Ethical Committee of the University Hospital of Tübingen, Germany) and 1 ml blood was washed with PBS two times. Afterwards we centrifuged the blood at 1000 g and performed a 1% (v/v) blood suspension in PBS. The blood suspension was incubated with different peptide concentrations (final concentration 0.5%) for one hour at 37° C. Then the samples were centrifuged at 1000 g for 10 minutes and the supernatant was collected and measured at 414 nm. […] These experiments were carried out in duplicates.

C. albicans 529L = format: cell-based
E. faecalis ATCC 19433 = assay: Turbidity assay, MIC by optical density after 18 h; format: cell-based

Description for HT29 MTX E29 cells: CaCo2/TC7 (X, X) and HT29 MTX [MUT] (X, X) were seed in a 96 well plate in 90 μl media (1500 cells/well) and incubated at 37° C. for 24 hours. Afterwards peptide treatment with different concentrations started (volume of 10 μl solved in 0.01% acetic acid) and cells were incubated for 96 hours. Untreated and 1% Triton-X treated cells were used as controls. After the incubation we added 100 μl of CellTiter Glo2.0 solution and started our measurement protocol. The measurement was carried out in a Spark 10M (Tecan), starting with 12 minutes continuously shaking followed by the luminescence measurement with an integration time from 1 second per well. Experiments were carried out in duplicates.

With `CC[C@H](C)[C@@H]1NC(=O)[C@H](CCC(=O)O)NC(=O)[C@@H]2CSSC[C@@H]3NC(=O)[C@H](Cc4ccc(O)cc4)NC(=O)[C@@H](NC(=O)[C@@H](NC(=O)[C@H](C)N)[C@@H](C)O)CSSC[C@@H](C(=O)N[C@@H](CCCNC(=N)N)C(=O)O)NC(=O)[C@H](CSSC[C@H](NC(=O)[C@H](CCCNC(=N)N)NC(=O)CNC(=O)[C@H]([C@@H](C)O)NC(=O)[C@H](CCCNC(=N)N)NC3=O)C(=O)N[C@@H](C)C(=O)N[C@@H]([C@@H](C)O)C(=O)N[C@@H](CCCNC(=N)N)C(=O)N[C@@H](CCC(=O)O)C(=O)N[C@@H](CO)C(=O)N[C@@H](CC(C)C)C(=O)N[C@@H](CO)C(=O)NCC(=O)N[C@@H](C(C)C)C(=O)N2)NC(=O)[C@H](CC(C)C)NC(=O)[C@H](CCCNC(=N)N)NC(=O)[C@H](Cc2ccc(O)cc2)NC(=O)[C@H](CC(C)C)NC(=O)[C@H](CCCNC(=N)N)NC(=O)CNC(=O)[C@H](CO)NC1=O` [HD-5, reference compound] (H-ATCYCRTGRCATRESLSGVCEISGRLYRLCCR-OH; disulfide 3-31, 5-20, 10-30 (inferred); N-terminus and C-terminus assumed) the “phenotype of peptide treated bacteria (TEM)” value (E. coli MC1000) was “detached inner membrane and small vesicular structures around the bacteria cell envelope”, the MIC (A. baumannii 4-MRGN; 4-MRGN, 12 h) was 6.25 µM and the MIC (A. baumannii 4-MRGN; A. baumannii 4-MRGN, after 12 hours, listed as fl) was 22.4 µg/mL. For the same molecule, the MIC (P. aeruginosa ATCC 27853; ATCC 27853, 12 h) was 25 µM, the MIC (P. aeruginosa ATCC 27853; P. aeruginosa ATCC 27853, after 12 hours, listed as fl) was 89.7 µg/mL and the “antimicrobial activity in radial diffusion assay” value (pathogenic bacteria) was “strong effect on the growth of every tested bacterium”. For the same molecule, the “antimicrobial activity in radial diffusion assay” value (commensal bacteria) was “broad antimicrobial activity” and the “susceptibility to proteolytic digestion” value [1] was “digested by intestinal proteases”.

For `CC[C@H](C)[C@H](NC(=O)[C@H](CCC(=O)O)NC(=O)[C@H](CS)NC(=O)[C@@H](NC(=O)CNC(=O)[C@H](CO)NC(=O)[C@H](CC(C)C)NC(=O)[C@H](CO)NC(=O)[C@H](CCC(=O)O)NC(=O)[C@H](CCCNC(=N)N)NC(=O)[C@@H](NC(=O)[C@H](C)NC(=O)[C@H](CS)NC(=O)[C@H](CCCNC(=N)N)NC(=O)CNC(=O)[C@@H](NC(=O)[C@H](CCCNC(=N)N)NC(=O)[C@H](CS)NC(=O)[C@H](Cc1ccc(O)cc1)NC(=O)[C@H](CS)NC(=O)[C@@H](NC(=O)[C@H](C)N)[C@@H](C)O)[C@@H](C)O)[C@@H](C)O)C(C)C)C(=O)N[C@@H](CO)C(=O)NCC(=O)N[C@@H](CCCNC(=N)N)C(=O)N[C@@H](CC(C)C)C(=O)N[C@@H](Cc1ccc(O)cc1)C(=O)N[C@@H](CCCNC(=N)N)C(=O)O` [HD-51-28] (H-ATCYCRTGRCATRESLSGVCEISGRLYR-OH; N-terminus and C-terminus assumed), the “phenotype of peptide treated bacteria (TEM)” value (E. coli MC1000) was “bigger aggregation inside the bacteria”, the “antimicrobial activity in radial diffusion assay” value (pathogenic bacteria) was “only minimally active or more selective in terms of different strains” and the “antimicrobial activity in radial diffusion assay” value (commensal bacteria) was “exhibited antimicrobial properties, albeit to a lesser extent than HD-51-9”.

In the case of `CC(C)C[C@H](NC(=O)[C@H](CCCNC(=N)N)NC(=O)[C@H](CS)NC(=O)[C@H](CO)NC(=O)[C@H](CS)NC(=O)[C@@H](N)C(C)C)C(=O)N[C@H](C(=O)N[C@@H](Cc1ccccc1)C(=O)N[C@@H](CS)C(=O)N[C@@H](CCCNC(=N)N)C(=O)N[C@@H](CCCNC(=N)N)C(=O)O)C(C)C` [HNP-41-11] (H-VCSCRLVFCRR-OH; N-terminus and C-terminus assumed), the cytotoxic effects (CaCo2/TC7 cells) is reported as “minor cytotoxic effects”, the “cytotoxic effects compared to CaCo2/TC7” value (HT29 MTX E29 cells) is reported as “more susceptible” and the MIC (E. coli JM83; E. coli JM83, after 12 hours) is reported as 8.4 µg/mL. It also gave an MIC (E. coli JM83; JM83, 12 h) of 6.25 µM, an MIC (P. aeruginosa XPAT2; P. aeruginosa XPAT2, after 12 hours) of 16.8 µg/mL and an MIC (P. aeruginosa XPAT2; XPAT2, 12 h) of 12.5 µM. It also gave an MIC (Y. enterocolitica; 12 h) of 12.5 µM, an MIC (Y. enterocolitica; Y. enterocolitica, after 12 hours) of 16.8 µg/mL and an MIC (A. baumannii DSM 30007; A. baumannii DSM30007, after 12 hours) of 8.4 µg/mL. For the same molecule, the MIC (A. baumannii DSM 30007; DSM 30007, 12 h) was 6.25 µM, the MIC (K. pneumoniae 3-MRGN; 3-MRGN, 12 h) was 25 µM and the MIC (K. pneumoniae 3-MRGN; K. pneumoniae 3-MRGN, after 12 hours) was 33.5 µg/mL. It also gave an MIC (P. aeruginosa 4-MRGN; 4-MRGN, 12 h) of 50 µM, an MIC (P. aeruginosa 4-MRGN; P. aeruginosa 4-MRGN, after 12 hours) of 67.1 µg/mL and an MIC (E. faecium 475747; 475747, 12 h) of 3.125 µM. It also gave an MIC (E. faecium 475747; E. faecium 475747, after 12 hours) of 4.2 µg/mL, an MIC (S. aureus ATCC 25923; ATCC 25923, 12 h) of 12.5 µM and an MIC (S. aureus ATCC 25923; S. aureus ATCC25923, after 12 hours) of 16.8 µg/mL. It also gave an MIC (E. faecium DSM 20477; DSM 20477, 12 h) of 12.5 µM, an MIC (E. faecium DSM 20477; E. faecium DSM20477, after 12 hours) of 16.8 µg/mL and an MIC (S. aureus USA300; S. aureus USA300, after 12 hours) of 67.1 µg/mL. It also gave an MIC (S. aureus USA300; USA300, 12 h) of 50 µM, an MIC (A. baumannii 4-MRGN; 4-MRGN, 12 h) of 25 µM and an MIC (A. baumannii 4-MRGN; A. baumannii 4-MRGN, after 12 hours) of 33.5 µg/mL. It also gave an MIC (P. aeruginosa PAO1; P. aeruginosa PAO1, after 12 hours) of 16.8 µg/mL, an MIC (P. aeruginosa PAO1; PAO1, 12 h) of 12.5 µM and an MIC (P. aeruginosa ATCC 27853; ATCC 27853, 12 h) of 12.5 µM. The MIC (P. aeruginosa ATCC 27853; P. aeruginosa ATCC 27853, after 12 hours) was 16.8 µg/mL, the MIC (K. pneumoniae DSM 30104; DSM 30104, 12 h) was 25 µM and the MIC (K. pneumoniae DSM 30104; K. pneumoniae DSM30104, after 12 hours) was 33.5 µg/mL. For the same molecule, the MIC (P. aeruginosa XPAT1; P. aeruginosa XPAT1, after 12 hours) was 16.8 µg/mL, the MIC (P. aeruginosa XPAT1; XPAT1, 12 h) was 12.5 µM and the “hemolytic activity, in words” value (human erythrocytes) was “low hemolytic activity”. For the same molecule, the MIC (C. albicans 529L; 529L, 24 h) was 100 µM and the MIC (C. albicans 529L; C. albicans 529L, after 24 hours (Table 5)) was 134.2 µg/mL.

In the case of AFTCHCRRSCYSTEYSYGTCTVMGINHRFCCL [HD-6], the “susceptibility to proteolytic digestion” value [1] is reported as “protected against proteolytic digestion”.

In the case of “CTRATYCRG [random amino acid structure of HD51-9]”, the “antimicrobial activity, in words” value (E. faecalis ATCC 19433) is reported as “complete dissolving of bactericidal effects”.
